The assay has as its target human PDHK2 (hPDHK2) (Homo sapiens (Human), UniProt Q15119). Nature of the assay: Inhibitory action of PDHK activity in vitro (kinase reaction, residual PDH activity measured). The format is biochemical.
Setting [1] is: PDHK inhibitory activity (class symbol).
[2] abbreviates: read-out: PDHK inhibitory activity IC50.
The mark [3] stands for this setting: PDHK inhibitory activity, class symbol of IC50.
[4] abbreviates: PDHK inhibitory activity IC50 (μmol/L).

The structures appear in SMILES notation. Read-outs that look alike come from different tables or passages of the source.

What is called IC50 is the concentration at which inhibition is half-maximal. Take `Cn1cc(-c2cc(CCO)c3c(c2)C(O)(C(F)(F)F)c2ccccc2-3)cn1` (stereo not shown) [compound 643]: the IC50 is, setting by setting: under setting [1], 100 to 1000 nM; under setting [2], 184 nM.
Take `CNC(=O)CCn1cc(-c2cccc3c2-c2ccccc2C3(O)C(F)(F)F)cn1` (stereo not shown) [compound 487]: the concentration for half-maximal inhibition (IC50) was less than 100 nM under setting [3] and 64 nM under setting [2].
Consider `CC(=O)N(C)CCOc1cc(Cl)c2c(c1)C(O)(C(F)(F)F)c1ccccc1-2` (stereo not shown) [compound 388], for which the IC50 runs as follows: under setting [3], less than 100 nM; under setting [2], 63 nM.
Take `CN(C(=O)c1ccc2c(c1)C(O)(C(F)(F)F)c1ccccc1-2)C1CCC1` (stereo not shown) [compound 57]: the IC50 was greater than 1000 nM under setting [3] and 5620 nM under setting [2].
The matching figures for `CNc1cccc2c1-c1ccccc1C2(O)C(F)(F)F` (stereo not shown) [compound 85]: greater than 1000 nM and 23100 nM.
The matching figures for `CC(C)(C)Cn1cc(-c2cccc3c2-c2ccccc2C3(O)C(F)(F)F)cn1` (stereo not shown) [compound 524]: less than 100 nM and 87 nM.
As to `COC(=O)c1cc(Br)c2c(c1)C(O)(C(F)(F)F)c1ccccc1-2` (stereo not shown) [compound 472], the IC50 by setting is: under setting [3], 100 to 1000 nM; under setting [2], 184 nM.
The matching figures for `CCOC(=O)N1CCN(c2ccc3c(c2)C(O)(C(F)(F)F)c2ccccc2-3)CC1` (stereo not shown) [compound 211]: greater than 1000 nM and 1010 nM.
For `OC1(C(F)(F)F)c2ccccc2-c2c(-c3cccnc3)cc(Cl)cc21` (stereo not shown) [compound 243], the IC50 by setting is: under setting [3], less than 100 nM; under setting [2], 75 nM.
On the same counts, the results for `CC(C)(C)n1cc(-c2cccc3c2-c2ccccc2C3(O)C(F)(F)F)cn1` (stereo not shown) [compound 523] are less than 100 nM and 48 nM.
Take `OC1(C(F)(F)F)c2ccccc2-c2c(-c3cnn(Cc4ccccc4)c3)cccc21` (stereo not shown) [compound 466]: the IC50 is less than 100 nM under setting [3] and 55 nM under setting [2].
Regarding `CC(C)(C)C(=O)N1CCN(c2ccc3c(c2)C(O)(C(F)(F)F)c2ccccc2-3)CC1` (stereo not shown) [compound 209], the IC50 is, setting by setting: under setting [3], 100 to 1000 nM; under setting [2], 281 nM.
On to `OCC1(n2cc(-c3cc(F)cc4c3-c3ccccc3[C@]4(O)C(F)(F)F)cn2)CCCCC1` (stereo in doubt) [compound 545], for which the IC50 by setting is: under setting [4], 17 nM; under setting [3], less than 100 nM.
Take `OC1(C(F)(F)F)c2ccccc2-c2c(Br)cc(Cl)cc21` (stereo not shown) [compound 272]: the IC50 reads like this: under setting [3], 100 to 1000 nM; under setting [2], 342 nM.
`O=C(O)c1ccc(-c2ccc3c(c2)C(O)(C(F)(F)F)c2ccccc2-3)cc1Cl` (stereo not shown) [compound 238]: the IC50 reads like this: under setting [3], 100 to 1000 nM; under setting [2], 252 nM.
In the case of `Cn1cc(-c2cc(C(=O)N3CCC[C@H]3CO)cc3c2-c2ccccc2C3(O)C(F)(F)F)cn1` (stereo partly shown) [compound 393], the half-maximal inhibitory concentration (IC50) runs as follows: under setting [3], 100 to 1000 nM; under setting [2], 176 nM.
The matching figures for `O=C(COc1ccc2c(c1)C(O)(C(F)(F)F)c1ccccc1-2)N1CCC(O)CC1` (stereo not shown) [compound 396]: 100 to 1000 nM and 627 nM.
With `O=C(O)CCCn1cc(-c2cc(CO)cc3c2-c2ccccc2C3(O)C(F)(F)F)cn1` (stereo not shown) [compound 623], the IC50 under setting [1] fell in the range of 100 to 1000 nM and the IC50 under setting [2] came out at 133 nM.
With `CN(CC(=O)O)C(=O)COc1ccc2c(c1)C(O)(C(F)(F)F)c1ccccc1-2` (stereo not shown) [compound 462], the IC50 reads like this: under setting [3], greater than 1000 nM; under setting [2], 5980 nM.
For `O=C(c1cc(-c2cccnc2)c2c(c1)C(O)(C(F)(F)F)c1ccccc1-2)N1CCC1` (stereo not shown) [compound 242], the IC50 is less than 100 nM under setting [3] and 86 nM under setting [2].
On the same counts, the results for `CN(C)C(=O)COC1CN(C(=O)c2ccc3c(c2)C(O)(C(F)(F)F)c2ccccc2-3)C1` (stereo not shown) [compound 118] are 100 to 1000 nM and 839 nM.
The matching figures for `Cc1cc(-c2cnn(CCO)c2)cc2c1-c1ccccc1C2(O)C(F)(F)F` (stereo not shown) [compound 584]: less than 100 nM and 77 nM.
Take `CN1C(=O)CC[C@@H]1COc1ccc2c(c1)C(O)(C(F)(F)F)c1ccccc1-2` (stereo partly shown) [compound 447]: the IC50 is 100 to 1000 nM under setting [3] and 202 nM under setting [2].
The matching figures for `OC1(C(F)(F)F)c2ccccc2-c2c(-c3ncco3)cccc21` (stereo not shown) [compound 131]: greater than 1000 nM and greater than 10000 nM.
In the case of `NC(=O)COc1ccc2c(c1)C(O)(C(F)(F)F)c1ccccc1-2` (stereo not shown) [compound 288], the IC50 was 100 to 1000 nM under setting [3] and 635 nM under setting [2].
On the same counts, the results for `Cc1nc(-c2cccc3c2-c2ccccc2C3(O)C(F)(F)F)no1` (stereo not shown) [compound 274] are greater than 1000 nM and 7490 nM.
For `CNC(=O)c1ccc(-c2ccc3c(c2)C(O)(C(F)(F)F)c2ccccc2-3)cc1` (stereo not shown) [compound 191], the IC50 under setting [3] is 100 to 1000 nM and the IC50 under setting [2] was determined as 216 nM.
In the case of `O=C(COc1ccc2c(c1)C(O)(C(F)(F)F)c1ccccc1-2)N(CCO)CCO` (stereo not shown) [compound 400], the IC50 reads like this: under setting [3], greater than 1000 nM; under setting [2], 7080 nM.
For `CNC(=O)CCCCOc1ccc2c(c1)C(O)(C(F)(F)F)c1ccccc1-2` (stereo not shown) [compound 305], the IC50 under setting [3] fell in the range of 100 to 1000 nM and the IC50 under setting [2] was 562 nM.
As for `OC[C@@H](O)Cn1cc(-c2cc(F)cc3c2-c2ccccc2C3(O)C(F)(F)F)cn1` (single isomer, unassigned) [compound 565], the IC50 reads like this: under setting [3], less than 100 nM; under setting [2], 18 nM.
The matching figures for `CCOC(=O)c1cccc2c1-c1ccccc1C2(O)C(F)(F)F` (stereo not shown) [compound 48]: 100 to 1000 nM and 639 nM.
On the same counts, the results for `COC(=O)c1cc(C)c2c(c1)C(O)(C(F)(F)F)c1ccccc1-2` (stereo not shown) [compound 45] are 100 to 1000 nM and 247 nM.
In the case of `CC(=O)NCCn1cc(-c2cccc3c2-c2ccccc2C3(O)C(F)(F)F)cn1` (stereo not shown) [compound 527], the IC50 reads like this: under setting [3], less than 100 nM; under setting [2], 79 nM.
On the same counts, the results for `OC1(C(F)(F)F)c2ccccc2-c2ccc(-c3ccccn3)cc21` (stereo not shown) [compound 112] are greater than 1000 nM and 1230 nM.
On the same counts, the results for `O=C(c1ccc2c(c1)C(O)(C(F)(F)F)c1ccccc1-2)N1CC(C(=O)N2CCC(O)C2)C1` (stereo not shown) [compound 337] are 100 to 1000 nM and 499 nM.
The matching figures for `O=C(O)CCCOc1cc(-c2cncnc2)c2c(c1)C(O)(C(F)(F)F)c1ccccc1-2` (stereo not shown) [compound 510]: less than 100 nM and 62 nM.
With `CN(CCOc1cc(-c2cnn(C)c2)c2c(c1)C(O)(C(F)(F)F)c1ccccc1-2)C(=O)C(C)(C)C` (stereo not shown) [compound 471], the half-maximal inhibitory concentration (IC50) is, setting by setting: under setting [3], less than 100 nM; under setting [2], 26 nM.
Take `CCCOC1CN(C(=O)c2ccc3c(c2)C(O)(C(F)(F)F)c2ccccc2-3)C1` (stereo not shown) [compound 105]: the IC50 under setting [3] is 100 to 1000 nM and the IC50 under setting [2] was determined as 259 nM.
The matching figures for `Cn1cc(-c2cccc3c2-c2ccccc2C3(O)C(F)(F)F)cn1` (stereo not shown) [compound 263]: 100 to 1000 nM and 133 nM.
On the same counts, the results for `NC(=O)COc1cc(-c2cn[nH]c2)c2c(c1)C(O)(C(F)(F)F)c1ccccc1-2` (stereo not shown) [compound 503] are less than 100 nM and 45 nM.
Consider `Oc1cccc2c1-c1ccccc1C2(O)C(F)(F)F` (stereo not shown) [compound 63], for which the IC50 is, setting by setting: under setting [3], greater than 1000 nM; under setting [2], 8480 nM.
On the same counts, the results for `Cn1cc(-c2cc(OCC(=O)O)cc3c2-c2ccccc2C3(O)C(F)(F)F)cn1` (stereo not shown) [compound 358] are less than 100 nM and 34 nM.
The matching figures for `O=C(c1ccc2c(c1)C(O)(C(F)(F)F)c1ccccc1-2)C1CCC1` (stereo not shown) [compound 119]: greater than 1000 nM and 1000 nM.
The matching figures for `CCOC(=O)c1ccc(-c2ccc3c(c2)C(O)(C(F)(F)F)c2ccccc2-3)cc1` (stereo not shown) [compound 175]: 100 to 1000 nM and 517 nM.
`COC(=O)COc1cc(Cl)c2c(c1)C(O)(C(F)(F)F)c1ccccc1-2` (stereo not shown) [compound 480]: the IC50 runs as follows: under setting [3], 100 to 1000 nM; under setting [2], 553 nM.
The matching figures for `Cn1cc(-c2cc(OCCCCC(=O)O)cc3c2-c2ccccc2C3(O)C(F)(F)F)cn1` (single isomer, unassigned) [compound 552]: less than 100 nM and 17 nM.
On the same counts, the results for `O=C(COc1ccc2c(c1)C(O)(C(F)(F)F)c1ccccc1-2)N1CCCCC1` (stereo not shown) [compound 361] are 100 to 1000 nM and 436 nM.
The matching figures for `COC(=O)COc1cc(Cl)c2c(c1)C(O)(C(F)(F)F)c1ccccc1-2` (single isomer, unassigned) [compound 481, (4-chloro-9-hydroxy-9-trifluoromethyl-9H-fluoren-2-yloxy)-acetic acid methyl ester]: 100 to 1000 nM and 251 nM.
In the case of `Cn1cc(-c2cc(OCCC(=O)O)cc3c2-c2ccccc2C3(O)C(F)(F)F)cn1` (stereo not shown) [compound 454], the IC50 by setting is: under setting [3], less than 100 nM; under setting [2], 64 nM.
Turning to `CC(C)=Cc1cc(-c2cnn(C(CO)CO)c2)c2c(c1)C(O)(C(F)(F)F)c1ccccc1-2` (single isomer, unassigned) [compound 664], the IC50 under setting [1] is less than 100 nM and the IC50 under setting [2] came to 15 nM.
In the case of `CN(C)C(=O)c1cccc(-c2ccc3c(c2)C(O)(C(F)(F)F)c2ccccc2-3)c1` (stereo not shown) [compound 158], the IC50 under setting [3] was in the range of 100 to 1000 nM and the IC50 under setting [2] was 221 nM.
On to `O=C(O)CCCn1cc(-c2cc(F)cc3c2-c2ccccc2[C@]3(O)C(F)(F)F)cn1` (stereo in doubt) [compound 537], for which the IC50 was 35 nM under setting [4] and less than 100 nM under setting [3].
As for `CC(C)(C)n1cc(-c2cc(C(N)=O)c3c(c2)C(O)(C(F)(F)F)c2ccccc2-3)cn1` (stereo not shown) [compound 639], the IC50 by setting is: under setting [1], less than 100 nM; under setting [2], 63 nM.
As for `OCc1ccc(-c2ccc3c(c2)C(O)(C(F)(F)F)c2ccccc2-3)cc1` (stereo not shown) [compound 194], the IC50 under setting [3] was 100 to 1000 nM and the IC50 under setting [2] was 368 nM.
For `CC(=O)N1CCN(c2ccc3c(c2)C(O)(C(F)(F)F)c2ccccc2-3)CC1` (stereo not shown) [compound 165], the IC50 is 100 to 1000 nM under setting [3] and 957 nM under setting [2].
Turning to `OCCn1cc(-c2cc(F)cc3c2-c2ccccc2C3(O)C(F)(F)F)cn1` (stereo not shown) [compound 505], the IC50 reads like this: under setting [3], less than 100 nM; under setting [2], 46 nM.

(Values after patent publication US8871934B2, “Fluorene compound and pharmaceutical use thereof” (Japan Tobacco Inc., priority 2008, dated 2014).)
